These results are taken from patent US12172995B2, “Substituted indole and indazole compounds” (BRISTOL-MYERS SQUIBB COMPANY, priority 2018, dated 2024).

Each structure is given as a SMILES string.

What all share (format): cell-based
For one assay, the target named is T1, human TLR8 (Homo sapiens, UniProt Q9NR97).
T1 construct: host or cells: HEK-Blue cells
T1 sequence (Q9NR97 27-1041): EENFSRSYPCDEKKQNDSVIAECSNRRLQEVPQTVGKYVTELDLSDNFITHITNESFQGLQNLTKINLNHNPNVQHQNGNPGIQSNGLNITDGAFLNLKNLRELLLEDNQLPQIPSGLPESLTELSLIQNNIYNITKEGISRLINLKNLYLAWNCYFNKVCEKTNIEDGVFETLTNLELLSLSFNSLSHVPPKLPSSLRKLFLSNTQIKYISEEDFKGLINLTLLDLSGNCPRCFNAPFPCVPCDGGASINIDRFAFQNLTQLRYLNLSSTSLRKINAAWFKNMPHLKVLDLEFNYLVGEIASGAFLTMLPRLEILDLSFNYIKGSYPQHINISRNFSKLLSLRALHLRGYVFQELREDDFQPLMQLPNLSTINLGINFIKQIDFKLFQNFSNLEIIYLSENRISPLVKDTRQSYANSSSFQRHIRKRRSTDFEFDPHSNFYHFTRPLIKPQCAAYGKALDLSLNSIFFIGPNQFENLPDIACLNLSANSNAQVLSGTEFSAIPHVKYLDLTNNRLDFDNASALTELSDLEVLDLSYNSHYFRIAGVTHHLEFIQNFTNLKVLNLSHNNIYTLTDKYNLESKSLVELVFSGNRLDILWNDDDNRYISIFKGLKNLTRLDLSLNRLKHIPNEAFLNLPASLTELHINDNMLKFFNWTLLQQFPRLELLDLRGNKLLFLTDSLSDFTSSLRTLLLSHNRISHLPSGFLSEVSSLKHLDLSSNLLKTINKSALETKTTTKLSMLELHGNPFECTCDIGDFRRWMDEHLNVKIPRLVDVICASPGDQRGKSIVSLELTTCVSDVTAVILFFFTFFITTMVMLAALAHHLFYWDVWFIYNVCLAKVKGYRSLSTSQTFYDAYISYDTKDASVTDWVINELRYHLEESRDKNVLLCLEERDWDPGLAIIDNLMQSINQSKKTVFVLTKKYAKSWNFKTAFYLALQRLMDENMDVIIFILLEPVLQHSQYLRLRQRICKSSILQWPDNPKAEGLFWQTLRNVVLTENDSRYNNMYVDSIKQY
As to the kind of experiment: TLR8 inhibition reporter assay (HEK-Blue SEAP). The following applies: HEK-Blue cells overexpressing human TLR8, stimulated with R848 15.9 μM, 22 hour incubation. The procedure, abridged: (§1)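 Reporter HEK-Blue lines; cpd 0.05 nM–50 μM, 30 min preincubation RT; agonist: TLR7 gardiquimod 7.5 μM, TLR8 R848 15.9 μM, TLR9 ODN2006 5 nM; 22 h 37 °C; SEAP detected colorimetrically; % inhib vs known inhibitor.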

The target of another assay is T2, human TLR9 (Homo sapiens, UniProt Q9NR96).
T2 construct: host or cells: HEK-Blue cells
T2 sequence (Q9NR96 26-1032): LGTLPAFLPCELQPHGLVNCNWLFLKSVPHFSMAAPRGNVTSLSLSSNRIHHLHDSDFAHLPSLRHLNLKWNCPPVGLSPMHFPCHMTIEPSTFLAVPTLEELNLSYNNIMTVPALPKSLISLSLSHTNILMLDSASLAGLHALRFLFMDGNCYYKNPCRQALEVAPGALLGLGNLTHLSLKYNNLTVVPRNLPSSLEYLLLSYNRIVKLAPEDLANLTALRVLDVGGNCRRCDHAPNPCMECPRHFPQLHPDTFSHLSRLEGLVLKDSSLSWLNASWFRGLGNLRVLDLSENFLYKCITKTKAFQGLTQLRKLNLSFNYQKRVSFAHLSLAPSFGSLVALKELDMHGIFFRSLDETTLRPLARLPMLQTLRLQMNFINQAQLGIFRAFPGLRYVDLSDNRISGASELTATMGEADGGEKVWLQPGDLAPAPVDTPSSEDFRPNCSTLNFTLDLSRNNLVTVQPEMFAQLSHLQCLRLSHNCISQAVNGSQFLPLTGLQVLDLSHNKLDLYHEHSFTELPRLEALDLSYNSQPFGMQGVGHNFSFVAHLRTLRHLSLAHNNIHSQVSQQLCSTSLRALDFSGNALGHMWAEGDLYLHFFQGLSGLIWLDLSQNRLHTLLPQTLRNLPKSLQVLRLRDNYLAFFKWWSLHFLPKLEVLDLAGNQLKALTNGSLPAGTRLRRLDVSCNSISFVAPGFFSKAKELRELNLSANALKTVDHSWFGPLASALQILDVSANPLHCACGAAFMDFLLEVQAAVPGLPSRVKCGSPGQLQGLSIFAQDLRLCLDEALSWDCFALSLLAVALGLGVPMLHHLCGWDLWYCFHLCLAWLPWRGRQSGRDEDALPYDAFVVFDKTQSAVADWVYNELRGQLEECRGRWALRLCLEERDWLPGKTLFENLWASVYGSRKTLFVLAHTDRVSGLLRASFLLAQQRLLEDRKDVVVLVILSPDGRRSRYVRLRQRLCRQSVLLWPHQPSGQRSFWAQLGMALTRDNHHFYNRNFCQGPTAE
The experiment in a line: TLR9 inhibition reporter assay (HEK-Blue SEAP). The following applies: HEK-Blue cells overexpressing human TLR9, stimulated with ODN2006 5 nM, 22 hour incubation. In a few lines: as §1

Another assay deals with T3, human TLR7 (Homo sapiens, UniProt Q9NYK1).
T3 construct: host or cells: HEK-Blue cells
T3 sequence (Q9NYK1 27-1049): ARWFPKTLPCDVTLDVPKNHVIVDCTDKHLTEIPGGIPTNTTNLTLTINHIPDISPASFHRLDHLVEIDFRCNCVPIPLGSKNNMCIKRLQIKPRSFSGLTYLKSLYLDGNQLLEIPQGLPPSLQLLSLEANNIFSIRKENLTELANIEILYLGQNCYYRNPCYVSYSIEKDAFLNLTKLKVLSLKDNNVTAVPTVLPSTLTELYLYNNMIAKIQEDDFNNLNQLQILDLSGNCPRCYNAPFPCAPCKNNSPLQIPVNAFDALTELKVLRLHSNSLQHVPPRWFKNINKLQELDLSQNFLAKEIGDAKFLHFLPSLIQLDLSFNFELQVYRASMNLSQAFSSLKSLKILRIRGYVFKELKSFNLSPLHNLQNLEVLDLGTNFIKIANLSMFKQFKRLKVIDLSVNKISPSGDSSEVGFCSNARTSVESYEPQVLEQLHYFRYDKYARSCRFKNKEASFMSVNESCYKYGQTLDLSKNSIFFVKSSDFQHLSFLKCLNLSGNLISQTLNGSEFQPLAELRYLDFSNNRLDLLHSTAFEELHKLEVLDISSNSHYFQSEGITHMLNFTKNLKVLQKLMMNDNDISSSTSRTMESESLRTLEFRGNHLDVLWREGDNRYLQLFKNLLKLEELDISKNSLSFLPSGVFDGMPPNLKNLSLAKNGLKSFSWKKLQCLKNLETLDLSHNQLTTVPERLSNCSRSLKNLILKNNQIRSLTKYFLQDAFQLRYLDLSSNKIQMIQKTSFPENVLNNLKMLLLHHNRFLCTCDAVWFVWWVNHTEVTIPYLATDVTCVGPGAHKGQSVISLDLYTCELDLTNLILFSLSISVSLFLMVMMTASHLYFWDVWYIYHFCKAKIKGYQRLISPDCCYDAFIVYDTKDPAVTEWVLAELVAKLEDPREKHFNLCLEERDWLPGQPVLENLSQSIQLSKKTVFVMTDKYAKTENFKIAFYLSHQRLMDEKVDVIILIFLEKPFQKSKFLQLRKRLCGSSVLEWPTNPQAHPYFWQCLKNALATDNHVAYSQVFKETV
The experiment in a line: TLR7 inhibition reporter assay (HEK-Blue SEAP). The settings on record: HEK-Blue cells overexpressing human TLR7, stimulated with gardiquimod 7.5 μM, 22 hour incubation. In a few lines:
as §1

Turning to `Cc1cc(-c2cc(C)c3ncnn3c2)cc2[nH]cc(C3CCNCC3)c12` [Example 16, 8-methyl-6-(4-methyl-3-(piperidin-4-yl)-1H-indol-6-yl)-[1,2,4]triazolo[1,5-a]pyridine], the IC50 came to 35.2 nM against human TLR8, 1420 nM at human TLR9 and 3.3 nM against human TLR7.

Take `Cc1cc(-c2cc(C)c3ncnn3c2)cc2[nH]nc(C3CCC(N(C)C)CC3)c12` (stereo not drawn) [Example 81, N,N-dimethyl-4-(4-methyl-6-(8-methyl-[1,2,4]triazolo[1,5-a]pyridin-6-yl)-1H-indazol-3-yl)cyclohexan-1-amine]: the IC50 against human TLR8 worked out at 5.3 nM; on human TLR9 it was 1830 nM; on human TLR7, 1.3 nM.

In the case of `COC1CN(C2CCC(c3n[nH]c4cc(-c5cc(C)c6ncnn6c5)c(C(C)C)cc34)CC2)C1` (stereo not drawn) [Example 144, 6-(5-isopropyl-3-(4-(3-methoxyazetidin-1-yl)cyclohexyl)-1H-indazol-6-yl)-8-methyl-[1,2,4]triazolo[1,5-a]pyridine], the values for the IC50 against human TLR8, on human TLR9 and on human TLR7 were 0.5 nM, 13100 nM and 0.8 nM, respectively.

Consider `CCc1cc2c(C3CCN(CC(C)(C)O)CC3)n[nH]c2cc1-c1cc(C)c2ncnn2c1` [Example 101, 1-(4-(5-ethyl-6-(8-methyl-[1,2,4]triazolo[1,5-a]pyridin-6-yl)-1H-indazol-3-yl)piperidin-1-yl)-2-methylpropan-2-ol], for which the IC50 against human TLR8 turned out to be 0.2 nM; at human TLR9, 12200 nM; against human TLR7, 5.6 nM.

In the case of `Cc1cc(-c2cc3[nH]nc(C4CCC(N5CC(C)(C)C5)CC4)c3cc2C(C)C)cn2ncnc12` (single isomer, unassigned) [Example 137, 6-(3-(4-(3,3-dimethylazetidin-1-yl)cyclohexyl)-5-isopropyl-1H-indazol-6-yl)-8-methyl-[1,2,4]triazolo[1,5-a]pyridine], the IC50 came out at 0.6 nM at human TLR8, 8680 nM against human TLR9 and 5.5 nM against human TLR7.

Turning to `Cc1cc(-c2cc3[nH]nc(C4CCN(C5CCOCC5)CC4)c3cc2C(C)C)cn2ncnc12` [Example 116, 6-(5-isopropyl-3-(1-(tetrahydro-2H-pyran-4-yl)piperidin-4-yl)-1H-indazol-6-yl)-8-methyl-[1,2,4]triazolo[1,5-a]pyridine], the IC50 on human TLR8 was determined as 0.1 nM; at human TLR9 it was 6550 nM; at human TLR7, 0.6 nM.

For the compound `CCc1cc(-c2cc(C)c3ncnn3c2)cc2[nH]nc(C3CCN(CC(=O)N(C)C)CC3)c12` [Example 8, 2-(4-(4-ethyl-6-(8-methyl-[1,2,4]triazolo[1,5-a]pyridin-6-yl)-1H-indazol-3-yl)piperidin-1-yl)-N,N-dimethylacetamide], the half-inhibitory concentration (IC50) against human TLR8 was 4.5 nM; against human TLR9, 6070 nM; on human TLR7 it was 4 nM.

For `Cc1cc2c(C3CCC(NC4CC4)CC3)n[nH]c2cc1-c1cc(C)c2ncnn2c1` (stereo not drawn) [Example 36, N-cyclopropyl-4-(5-methyl-6-(8-methyl-[1,2,4]triazolo[1,5-a]pyridin-6-yl)-1H-indazol-3-yl) cyclohexan-1-amine], the IC50 against human TLR8 was 0.2 nM; on human TLR9, 3340 nM; on human TLR7 it was 7 nM.

With `COc1cc(-c2cc3[nH]nc(C4CCC(N5CC(OC)C5)CC4)c3cc2C(C)C)cn2ncnc12` (single isomer, unassigned) [Example 147, 6-(5-isopropyl-3-(4-(3-methoxyazetidin-1-yl)cyclohexyl)-1H-indazol-6-yl)-8-methoxy-[1,2,4]triazolo[1,5-a]pyridine], the values for the half-inhibitory concentration (IC50) against human TLR8, at human TLR9 and against human TLR7 were 0.2 nM, 13100 nM and 0.4 nM, respectively.

Regarding `CCc1cc2c(C3CCC(NC4CC4)CC3)n[nH]c2cc1-c1cc(C)c2ncnn2c1` (single isomer, unassigned) [Example 98, N-cyclopropyl-4-(5-ethyl-6-(8-methyl-[1,2,4]triazolo[1,5-a]pyridin-6-yl)-1H-indazol-3-yl)cyclohexan-1-amine], the half-maximal inhibitory concentration (IC50) against human TLR8 was 0.2 nM; at human TLR9, 6570 nM; on human TLR7, 2.5 nM.

In the case of `Cc1cc2c(C3CCC(NCC(=O)N(C)C)CC3)n[nH]c2cc1-c1cc(C)c2ncnn2c1` (single isomer, unassigned) [Example 29, N,N-dimethyl-2-((4-(5-methyl-6-(8-methyl-[1,2,4]triazolo[1,5-a]pyridin-6-yl)-1H-indazol-3-yl)cyclohexyl)amino)acetamide], the values for the IC50 on human TLR8, on human TLR9 and against human TLR7 were 0.9 nM, 6340 nM and 39 nM, respectively.

As for `Cc1cc(-c2cc(C)c3ncnn3c2)cc2[nH]nc(OC3CCC(N(C)C)CC3)c12` (single isomer, unassigned) [Example 179, N,N-dimethyl-4-((4-methyl-6-(8-methyl-[1,2,4]triazolo[1,5-a]pyridin-6-yl)-1H-indazol-3-yl)oxy)cyclohexan-1-amine], the IC50 was determined as 8.5 nM on human TLR8, 2080 nM against human TLR9 and 3.3 nM against human TLR7.
